Among the data in PubChem BioAssay (NCI) are GI50 and TGI values, retold here.

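48-hour exposure; five concentrations; linearly interpolated endpoints. The concentration for 50% growth inhibition is given as GI50. TGI marks complete inhibition of growth.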

Common to all, as to assay: NCI tumour cell line growth inhibition, 48 h
The test system of experiment [1] is HOP-92 NSCLC.
In experiment [2] the test system is NCI-H460 lung.
Experiment [3] relates to COLO 205 colon.
The subject of experiment [4] is HCC-2998 colon.
The subject of experiment [5] is HCT-15 colon.
Experiment [6] has as its system BT-549 breast.
Experiment [7] relates to MOLT-4 leukemia.
Experiment [8] deals with MALME-3M melanoma.

Take `Nc1n[nH]c2ccc([C@@H]3Nc4cc5[nH]ncc5cc4[C@H]4C5CCC(C5)[C@@H]34)cc12` (some centres not stated): the GI50 in experiment [1] was 4.59 µM; in experiment [2], 0.368 µM; in experiment [3], 0.424 µM; in experiment [4], 789 nM; in experiment [5] it was 0.431 µM; in experiment [6], 725 nM. Besides, in experiment [7], the GI50 is 442 nM. The TGI in experiment [1] is over 46.2 µM; in experiment [2], over 41.4 µM; in experiment [3] it was over 40.6 µM; in experiment [4], 49.1 µM; in experiment [5], over 100 µM; in experiment [6], over 46 µM. Also, in experiment [7], the TGI was over 100 µM.

Take `O=C1c2ccccc2C(=O)N1C1(C(=O)NC2(C(=O)O)CCCC2)CCCC1`: the TGI in experiment [3], in experiment [4], in experiment [5], in experiment [6], in experiment [7] and in experiment [8] was over 100 µM throughout.

For `COc1cc2c(cc1-c1coc3cc(OCC=C(C)C)ccc3c1=O)OCO2`, the TGI in experiment [1] is over 100 µM; in experiment [2], 35.1 µM; in experiment [3], over 100 µM; in experiment [4] it was 44.8 µM; in experiment [5], 32.8 µM; in experiment [6] it was 48.4 µM. The compound further displayed a TGI in experiment [7] of 45.2 µM.

For the compound `COc1ccc(-c2ccc(/C=N/n3c(COc4ccccc4Cl)n[nH]c3=S)o2)c([N+](=O)[O-])c1`, the GI50 in experiment [2] is 23.7 µM; in experiment [3], 40.2 µM; in experiment [5], 26.5 µM. Besides, the TGI is 52.7 µM in experiment [2], over 100 µM in experiment [3] and 89.2 µM in experiment [5].

For the compound `C=C1CC[C@@H]2[C@](C)(COC(C)=O)[C@H](OC(C)=O)CC[C@@]2(C)[C@@H]1CC(Nc1ccc(S(=O)(=O)Nc2nccs2)cc1)C1=CCOC1=O` (some centres not stated), the GI50 is 12.4 µM in experiment [1]; 10.7 µM in experiment [2]; 3.14 µM in experiment [3]; 7780 nM in experiment [4]; 1.73 µM in experiment [5]; 2430 nM in experiment [6]. In addition, the GI50 in experiment [7] is 3680 nM. The TGI in experiment [1] worked out at 25.3 µM; in experiment [2], 25.3 µM; in experiment [3], 10.5 µM; in experiment [4] it was 21.3 µM; in experiment [5], 4.12 µM; in experiment [6], 6.5 µM. Moreover, the TGI in experiment [7] was determined as 73.2 µM.

As for `COc1cccc(C2C(C#N)=C(N)Oc3c2ccc2ccccc32)c1` (configuration not stated), the GI50 in experiment [1] is under 0.0271 µM; in experiment [2], 0.0246 µM; in experiment [3], 0.132 µM; in experiment [4] it was 35.5 nM; in experiment [5] it was under 0.01 µM; in experiment [6] it was 29 nM. For the same compound, the GI50 in experiment [7] is 40.9 nM. In addition, the TGI amounted to 7.78 µM in experiment [1]; 1.18 µM in experiment [2]; 0.639 µM in experiment [3]; 1.1 µM in experiment [4]; 10.2 µM in experiment [5]; 12.1 µM in experiment [6]. Besides, the TGI in experiment [7] is 17.8 µM.

On to `NCCC(=O)NC(Cc1cnc[nH]1)C(=O)O` (configuration not stated), for which the TGI in experiment [1], in experiment [2], in experiment [3], in experiment [4], in experiment [5] and in experiment [7] was over 100 µM in each case. In experiment [8], this compound displayed a TGI of over 100 µM.

As for `O=C(Nc1ccccc1Cl)c1cccc(NC2=C(Cl)C(=O)N(Cc3ccccc3)C2=O)c1`, the GI50 in experiment [1] was 15 µM; in experiment [2], 26.8 µM; in experiment [3], 51.2 µM; in experiment [4], 20500 nM; in experiment [5], 14.1 µM; in experiment [6], 22500 nM. In experiment [7], the GI50 was 2520 nM. The TGI in experiment [1] is over 100 µM; in experiment [2] it was over 100 µM; in experiment [3], over 100 µM; in experiment [4] it was 54.5 µM; in experiment [5], over 100 µM; in experiment [6], over 100 µM. In experiment [7], this compound gave a TGI of over 100 µM.

Take `CCOC(=O)C1=C(C)N2C(=NC3=C(CCC/C3=C\c3ccc(Cl)cc3)C2c2ccc(Cl)cc2)S1` (configuration not stated): the GI50 in experiment [2] was 4.04 µM; in experiment [3], 2.44 µM; in experiment [4] it was 1790 nM; in experiment [5] it was 2.15 µM; in experiment [6] it was 1530 nM; in experiment [7], 3060 nM. Further, in experiment [8], the GI50 was 11.3 µM. Further, the TGI stood at 19.4 µM in experiment [2]; 4.65 µM in experiment [3]; 3.19 µM in experiment [4]; 4.84 µM in experiment [5]; 3.52 µM in experiment [6]; 9.27 µM in experiment [7]. The same compound came in with a TGI in experiment [8] of 35.5 µM.

Regarding `CCSc1nc(N)c(C#N)c(-c2ccco2)c1C#N`, the GI50 in experiment [1] is 5.85 µM; in experiment [2], 33.5 µM; in experiment [3] it was 30.2 µM; in experiment [5] it was 28.4 µM; in experiment [6] it was 32300 nM; in experiment [7], 51900 nM. Also, the TGI in experiment [1] is 45.5 µM; in experiment [2], over 100 µM; in experiment [3], over 100 µM; in experiment [5], over 100 µM; in experiment [6] it was over 100 µM; in experiment [7], over 100 µM.

On to `CC1=C(C(=O)Nc2ccc(F)c(Cl)c2)C(c2ccccc2O)NC(=O)N1` (configuration not stated), for which the GI50 is 81.6 µM in experiment [1]; 96.6 µM in experiment [2]; over 100 µM in experiment [3]; over 100000 nM in experiment [4]; over 100 µM in experiment [5]; 71500 nM in experiment [6]. In addition, the TGI in experiment [1], in experiment [2], in experiment [3], in experiment [4], in experiment [5] and in experiment [6] was over 100 µM each time.

Regarding `CCN(CC)C(=O)COc1cc2c(O)c3c(O)c(C)c4c(c13)C(=O)C(C)(OC=CC(OC)C(C)C(OC(C)=O)C(C)C(O)C(C)C(O)C(C)C=CC=C(C)C(=O)N2)O4` (configuration not stated), the TGI in experiment [1], in experiment [2], in experiment [4], in experiment [5], in experiment [6] and in experiment [7] was over 100 µM throughout. In experiment [8], the TGI was over 100 µM.
